Laboratory results reported in PubChem BioAssay AID1963875 (Molecular Pharmacology Branch, DTP, NCI, 2024).

Tested on: KRAS-mutant PDC complex spheroid viability
Assay: Anticancer human tumor 186277-243-T-J2-PDC patient-derived colon adenocarcinoma cell line growth inhibition [KRAS2]
Details: for viability, T/C: stronger effect = lower value
How it was run: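 KRAS-mutant tumor cells were grown as spheroids with HUVEC endothelial cells and human MSCs as stroma. Targeted agents were tested alone and with KRAS pathway inhibitors. Doses started at or near clinical Cmax, or 10 microM, descending half-log.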

[1] = curve of first compound, second compound 0.1 µM
[2] = curve of first compound, second compound 0.316 µM
[3] = curve of first compound, second compound 1 µM
[4] = curve of first compound, second compound 3.16 µM
[5] = curve of first compound, second compound 10 µM
[6] = second compound 0.1 µM, first compound 0.0316 µM
[7] = second compound 0.1 µM, first compound 0.316 µM
[8] = second compound 0.1 µM, first compound 1 µM
[9] = second compound 0.1 µM, first compound 3.16 µM
[10] = second compound 0.1 µM, first compound 10 µM
[11] = second compound 0.316 µM, first compound 0.0316 µM
[12] = second compound 0.316 µM, first compound 0.1 µM
[13] = second compound 0.316 µM, first compound 0.316 µM
[14] = second compound 0.316 µM, first compound 1 µM
[15] = second compound 0.316 µM, first compound 3.16 µM
[16] = second compound 0.316 µM, first compound 10 µM
[17] = second compound 1 µM, first compound 0.0316 µM
[18] = second compound 1 µM, first compound 0.1 µM
[19] = second compound 1 µM, first compound 0.316 µM
[20] = second compound 1 µM, first compound 1 µM
[21] = second compound 1 µM, first compound 3.16 µM
[22] = second compound 1 µM, first compound 10 µM
[23] = second compound 3.16 µM, first compound 0.0316 µM
[24] = second compound 3.16 µM, first compound 0.1 µM
[25] = second compound 3.16 µM, first compound 0.316 µM
[26] = second compound 3.16 µM, first compound 1 µM
[27] = second compound 3.16 µM, first compound 3.16 µM
[28] = second compound 3.16 µM, first compound 10 µM
[29] = second compound 10 µM, first compound 0.0316 µM
[30] = second compound 10 µM, first compound 0.316 µM
[31] = second compound 10 µM, first compound 1 µM
[32] = curve of first compound, second compound 0.0316 µM
[33] = second compound 0.0316 µM, first compound 0.0316 µM
[34] = second compound 0.0316 µM, first compound 0.1 µM
[35] = second compound 0.0316 µM, first compound 0.316 µM
[36] = second compound 0.0316 µM, first compound 1 µM
[37] = second compound 0.0316 µM, first compound 3.16 µM
[38] = second compound 0.0316 µM, first compound 10 µM
[39] = second compound 0.1 µM, first compound 0.1 µM
[40] = second compound 0.1 µM, first compound 0.01 µM
[41] = second compound 0.316 µM, first compound 0.01 µM
[42] = second compound 1 µM, first compound 0.01 µM
[43] = second compound 3.16 µM, first compound 0.01 µM
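Wherever viability, T/C is given: viability read after seven days of compound exposure; 100% = DMSO vehicle-treated spheroids so lower means less viable.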

Row | SMILES | IC50 [1] | IC50 [2] | IC50 [3] | IC50 [4] | viability, T/C [6] | viability, T/C [7] | viability, T/C [8] | viability, T/C [9] | viability, T/C [11] | viability, T/C [12] | viability, T/C [13] | viability, T/C [14] | viability, T/C [17] | viability, T/C [18] | viability, T/C [19] | viability, T/C [20] | viability, T/C [23] | viability, T/C [24] | viability, T/C [25] | viability, T/C [26] | other results
1 | COc1cc(Nc2ncc3c(n2)-c2ccc(Cl)cc2C(c2c(F)cccc2OC)=NC3)ccc1C(=O)O + C=CC(=O)N1CCN(c2nc(=O)n(-c3c(C)ccnc3C(C)C)c3nc(-c4c(O)cccc4F)c(F)cc23)C(C)C1 | < 31.6 nM | < 31.6 nM | < 31.6 nM | < 31.6 nM | 25.1% | 22.8% | 34% | 50.2% | 28.5% | 29.5% | 32.6% | 38.1% | 23.2% | 23.8% | 32.7% | 38.5% | 29.2% | 30.8% | 32.8% | 36.9% | IC50 [5]: < 31.6 nM; viability, T/C [10]: 50.6%; viability, T/C [15]: 46.8%; viability, T/C [16]: 49.2%; viability, T/C [21]: 50.1%; viability, T/C [22]: 46.7%; viability, T/C [27]: 43%; viability, T/C [28]: 35.7%; viability, T/C [29]: 20.7%; viability, T/C (second compound 10 µM, first compound 0.1 µM): 29.2%; viability, T/C [30]: 21.1%; viability, T/C [31]: 27.9%; viability, T/C (second compound 10 µM, first compound 3.16 µM): 27.7%; viability, T/C (second compound 10 µM, first compound 10 µM): 20.7%
2 | COc1cc2nccc(Oc3ccc(NC(=O)C4(C(=O)Nc5ccc(F)cc5)CC4)cc3)c2cc1OC + C=CC(=O)N1CCN(c2nc(OCC3CCCN3C)nc3c2CCN(c2cccc4cccc(C)c24)C3)CC1CC#N | 1890 nM | 1720 nM | 1060 nM | < 31.6 nM | 113% | 110% | 97.8% | 11.4% | 109% | 108% | 116% | 85.3% | 107% | 109% | 112% | 52.5% | 0.41% | 0.44% | 0.24% | 0.21% | IC50 [32]: 1880 nM; viability, T/C [33]: 108%; viability, T/C [34]: 107%; viability, T/C [35]: 114%; viability, T/C [36]: 95.5%; viability, T/C [37]: 12.5%; viability, T/C [38]: 12.3%; viability, T/C [39]: 122%; viability, T/C [10]: 10.8%; viability, T/C [15]: 10.5%; viability, T/C [16]: 11.3%; viability, T/C [21]: 3.98%; viability, T/C [22]: 0.37%; viability, T/C [27]: 0.13%; viability, T/C [28]: 0.2%
3 | CCN1CCN(Cc2ccc(Nc3ncc(F)c(-c4cc(F)c5nc(C)n(C(C)C)c5c4)n3)nc2)CC1 + C=CC(=O)N1CCN(c2nc(=O)n(-c3c(C)ccnc3C(C)C)c3nc(-c4c(O)cccc4F)c(F)cc23)C(C)C1 | > 1000 nM | > 1000 nM | > 1000 nM | > 1000 nM | 98.4% | 158% | 96.6% | – | 103% | 117% | 157% | 105% | 99.7% | 113% | 153% | 99.7% | 108% | 139% | 175% | 73% | IC50 [5]: 571 nM; viability, T/C (second compound 0.1 µM, first compound 0.00316 µM): 107%; viability, T/C [40]: 95%; viability, T/C [39]: 129%; viability, T/C (second compound 0.316 µM, first compound 0.00316 µM): 104%; viability, T/C [41]: 101%; viability, T/C (second compound 1 µM, first compound 0.00316 µM): 109%; viability, T/C [42]: 103%; viability, T/C (second compound 3.16 µM, first compound 0.00316 µM): 92.2%; viability, T/C [43]: 102%; viability, T/C (second compound 10 µM, first compound 0.00316 µM): 69.1%; viability, T/C (second compound 10 µM, first compound 0.01 µM): 64.8%; viability, T/C [29]: 83.3%; viability, T/C [30]: 74.1%; viability, T/C [31]: 27.5%
4 | CNCc1ccccc1-c1csc(C(C)Nc2nc(C)nc3cc(OC)c(OC)cc23)c1 (stereo not drawn) | – | – | – | – | – | – | – | – | – | – | – | – | – | – | – | – | – | – | – | – | viability, T/C (compound 0.1 µM): 100% [middle of 17 runs]; viability, T/C (compound 0.316 µM): 98.9% [middle of 17 runs]; viability, T/C (compound 10 µM): 0.16% [middle of 12 runs]; IC50 (compound alone, run of 07/12/2021): 5.56 µM [middle of 6 runs]; IC50 (compound alone, run of 07/19/2021): 2.27 µM [middle of 5 runs]; IC50 (compound alone, run of 07/26/2021): 5.05 µM [middle of 6 runs]
5 | O=C(c1cc(Cc2n[nH]c(=O)c3ccccc23)ccc1F)N1CCN(C(=O)C2CC2)CC1 | – | – | – | – | – | – | – | – | – | – | – | – | – | – | – | – | – | – | – | – | viability, T/C (compound 0.0316 µM): 99.2% [middle of 5 runs]; viability, T/C (compound 0.1 µM): 101% [middle of 5 runs]; viability, T/C (compound 0.316 µM): 99.5% [middle of 5 runs]; viability, T/C (compound 10 µM): 40.3% [middle of 5 runs]
6 | O=C(c1cc(Cc2n[nH]c(=O)c3ccccc23)ccc1F)N1CCN(C(=O)C2CC2)CC1 + C=CC(=O)N1CCN(c2nc(OCC3CCCN3C)nc3c2CCN(c2cccc4cccc(C)c24)C3)CC1CC#N | 3530 nM | 8700 nM | 7630 nM | < 31.6 nM | 104% | 121% | 114% | 51.6% | 113% | 111% | 116% | 118% | 108% | 107% | 107% | 107% | 0.23% | 0.3% | 0.47% | 0.26% | IC50 [32]: 1170 nM; viability, T/C [33]: 105%; viability, T/C [34]: 107%; viability, T/C [35]: 96.2%; viability, T/C [36]: 53.1%; viability, T/C [37]: 30.7%; viability, T/C [38]: 26.6%; viability, T/C [39]: 119%; viability, T/C [10]: 34.3%; viability, T/C [15]: 72.2%; viability, T/C [16]: 47%; viability, T/C [21]: 77.3%; viability, T/C [22]: 41.6%; viability, T/C [27]: 0.28%; viability, T/C [28]: 0.22%
7 | CC1COCCN1c1cc(-c2ccnn2C)c2ccnc(-c3ccn[nH]3)c2n1 (stereo not drawn) + C=CC(=O)N1CCN(c2nc(OCC3CCCN3C)nc3c2CCN(c2cccc4cccc(C)c24)C3)CC1CC#N | 19.8 nM | 19 nM | 18.3 nM | < 10 nM | 24.3% | 5.76% | 5.41% | 5.94% | 21.6% | 7.5% | 5.3% | 5.1% | 12.7% | 7.23% | 5.64% | 4.81% | 1.73% | 1.13% | 1.47% | 0.61% | IC50 [32]: 20.3 nM; viability, T/C (second compound 0.0316 µM, first compound 0.01 µM): 88.9%; viability, T/C [33]: 25.8%; viability, T/C [34]: 7.37%; viability, T/C [35]: 5.84%; viability, T/C [36]: 5.53%; viability, T/C [37]: 6.31%; viability, T/C [40]: 87.5%; viability, T/C [39]: 7.71%; viability, T/C [41]: 85.9%; viability, T/C [15]: 5.45%; viability, T/C [42]: 91.2%; viability, T/C [21]: 4.49%; viability, T/C [43]: 1.43%; viability, T/C [27]: 1.05%
